Assay results from patent publication US9771370B2, “Compounds for the inhibition of indoleamine-2,3-dioxygenase” (Merck Patent GmbH, priority 2014, dated 2017).
pIC50: −log10 of the molar value.

Target: Recombinant human IDO (Homo sapiens, UniProt P14902)
Assay: Bridge-IT tryptophan fluorescence assay of human IDO-1 inhibition
Assay type: biochemical
Conditions: recombinant human IDO 7.5 nM, L-tryptophan
Summary of the method: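 Two protocol variants: 100 μM L-Trp for 90 min at 37 °C, or 30 min enzyme–compound pre-incubation at 25 °C, then 50 μM L-Trp for 60 min at 25 °C. Reaction stopped in Bridge-IT solution A for 30 min at 30 °C.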

Recombinant human IDO, sequence (P14902 whole entry): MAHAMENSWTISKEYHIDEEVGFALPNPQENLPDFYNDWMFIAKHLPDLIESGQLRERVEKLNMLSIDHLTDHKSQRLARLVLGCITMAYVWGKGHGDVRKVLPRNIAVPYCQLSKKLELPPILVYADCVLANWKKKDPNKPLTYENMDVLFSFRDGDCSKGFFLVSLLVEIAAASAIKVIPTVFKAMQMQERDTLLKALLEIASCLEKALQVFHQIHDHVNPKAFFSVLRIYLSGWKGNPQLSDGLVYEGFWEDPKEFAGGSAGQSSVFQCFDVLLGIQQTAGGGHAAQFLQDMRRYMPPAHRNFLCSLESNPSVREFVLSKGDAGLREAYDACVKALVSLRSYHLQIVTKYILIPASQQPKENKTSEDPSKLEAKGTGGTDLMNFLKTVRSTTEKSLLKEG

SMILES | pIC50
COc1ccc2c(n1)C(CCC1(F)CCC3(CC1)CC3)n1cncc1-2 (single isomer, unassigned) [Compound 54a, 7-(2-{6-fluorospiro[2.5]octan-6-yl}ethyl)-10-methoxy-4,6,9-triazatricyclo[6.4.0.0^[2,6]]dodeca-1(8),2,4,9,11-pentaene] | > 7.00
COc1ccc2c(n1)C(CCC1(F)CCC3(CC1)CC3)n1cncc1-2 (single isomer, unassigned) [Compound 54b, 7-(2-{6-fluorospiro[2.5]octan-6-yl}ethyl)-10-methoxy-4,6,9-triazatricyclo[6.4.0.0^[2,6]]dodeca-1(8),2,4,9,11-pentaene] | < 6.00
OC(CC1c2nc(Cl)ccc2-c2cncn21)C1CCCCC1 (single isomer, unassigned) [Compound 55a, 2-[10-chloro-4,6,9-triazatricyclo[6.4.0.0^[2,6]]dodeca-1(8),2,4,9,11-pentaen-7-yl]-1-cyclohexylethan-1-ol] | 6.00 to 7.00
OC(CC1c2nc(Cl)ccc2-c2cncn21)C1CCCCC1 (single isomer, unassigned) [Compound 55b, 2-[10-chloro-4,6,9-triazatricyclo[6.4.0.0^[2,6]]dodeca-1(8),2,4,9,11-pentaen-7-yl]-1-cyclohexylethan-1-ol] | < 6.00
OC(CC1c2nc(Cl)ccc2-c2cncn21)C1CCCCC1 (single isomer, unassigned) [Compound 55c, 2-[10-chloro-4,6,9-triazatricyclo[6.4.0.0^[2,6]]dodeca-1(8),2,4,9,11-pentaen-7-yl]-1-cyclohexylethan-1-ol] | < 6.00
OC(CC1c2nc(Cl)ccc2-c2cncn21)C1CCCCC1 (single isomer, unassigned) [Compound 55d, 2-[10-chloro-4,6,9-triazatricyclo[6.4.0.0^[2,6]]dodeca-1(8),2,4,9,11-pentaen-7-yl]-1-cyclohexylethan-1-ol] | 6.00 to 7.00
OC(CC1c2nc(C3CC3)ccc2-c2cncn21)C1CCCCC1 (single isomer, unassigned) [Compound 56b, 1-cyclohexyl-2-[10-cyclopropyl-4,6,9-triazatricyclo[6.4.0.0^[2,6]]dodeca-1(8),2,4,9,11-pentaen-7-yl]ethan-1-ol] | > 7.00
OC(CC1c2nc(C3CC3)ccc2-c2cncn21)C1CCCCC1 (single isomer, unassigned) [Compound 56c, 1-cyclohexyl-2-[10-cyclopropyl-4,6,9-triazatricyclo[6.4.0.0^[2,6]]dodeca-1(8),2,4,9,11-pentaen-7-yl]ethan-1-ol] | < 6.00
OC(CC1c2nc(C3CC3)ccc2-c2cncn21)C1CCC(F)(F)CC1 (single isomer, unassigned) [Compound 57b, 2-[10-cyclopropyl-4,6,9-triazatricyclo[6.4.0.0^[2,6]]dodeca-1(8),2,4,9,11-pentaen-7-yl]-1-(4,4-difluorocyclohexyl)ethan-1-ol] | 6.00 to 7.00
OC(CC1c2nc(C3CC3)ccc2-c2cncn21)C1CCC(F)(F)CC1 (single isomer, unassigned) [Compound 57c, 2-[10-cyclopropyl-4,6,9-triazatricyclo[6.4.0.0^[2,6]]dodeca-1(8),2,4,9,11-pentaen-7-yl]-1-(4,4-difluorocyclohexyl)ethan-1-ol] | 6.00 to 7.00
OC1CCC(F)(CCC2c3cc(F)ncc3-c3cncn32)CC1 (single isomer, unassigned) [Compound 58a, 4-fluoro-4-[2-[10-fluoro-4,6,11-triazatricyclo[6.4.0.0^[2,6]]dodeca-1(8),2,4,9,11-pentaen-7-yl]ethyl]cyclohexan-1-ol] | < 6.00
OC1CCC(F)(CCC2c3cc(F)ncc3-c3cncn32)CC1 (single isomer, unassigned) [Compound 58c, 4-fluoro-4-[2-[10-fluoro-4,6,11-triazatricyclo[6.4.0.0^[2,6]]dodeca-1(8),2,4,9,11-pentaen-7-yl]ethyl]cyclohexan-1-ol] | < 6.00
OC1CCC(F)(CCC2c3cc(F)ncc3-c3cncn32)CC1 (single isomer, unassigned) [Compound 58d, 4-fluoro-4-[2-[10-fluoro-4,6,11-triazatricyclo[6.4.0.0^[2,6]]dodeca-1(8),2,4,9,11-pentaen-7-yl]ethyl]cyclohexan-1-ol] | < 6.00
OCC1CCC(F)(CCC2c3ccccc3-c3cncn32)CC1 (single isomer, unassigned) [Compound 59a, [4-fluoro-4-[2-[5H-imidazo[4,3-a]isoindol-5-yl]ethyl]cyclohexyl]methanol] | < 6.00
OCC1CCC(F)(CCC2c3ccccc3-c3cncn32)CC1 (single isomer, unassigned) [Compound 59b, [4-fluoro-4-[2-[5H-imidazo[4,3-a]isoindol-5-yl]ethyl]cyclohexyl]methanol] | > 7.00
OCC1CCC(F)(CCC2c3ccccc3-c3cncn32)CC1 (single isomer, unassigned) [Compound 59c, [4-fluoro-4-[2-[5H-imidazo[4,3-a]isoindol-5-yl]ethyl]cyclohexyl]methanol] | > 7.00
OCC1CCC(F)(CCC2c3ccccc3-c3cncn32)CC1 (single isomer, unassigned) [Compound 59d, [4-fluoro-4-[2-[5H-imidazo[4,3-a]isoindol-5-yl]ethyl]cyclohexyl]methanol] | < 6.00

SMILES | pIC50
OC1(C2CCC(F)(CCC3c4ccccc4-c4cncn43)CC2)CC1 (single isomer, unassigned) [Compound 60a, 1-[4-fluoro-4-[2-[5H-imidazo[4,3-a]isoindol-5-yl]ethyl]cyclohexyl]cyclopropan-1-ol] | > 7.00
OC1(C2CCC(F)(CCC3c4ccccc4-c4cncn43)CC2)CC1 (single isomer, unassigned) [Compound 60b, 1-[4-fluoro-4-[2-[5H-imidazo[4,3-a]isoindol-5-yl]ethyl]cyclohexyl]cyclopropan-1-ol] | < 6.00
OC1(C2CCC(F)(CCC3c4ccccc4-c4cncn43)CC2)CC1 (single isomer, unassigned) [Compound 60c, 1-[4-fluoro-4-[2-[5H-imidazo[4,3-a]isoindol-5-yl]ethyl]cyclohexyl]cyclopropan-1-ol] | < 6.00
OC1(C2CCC(F)(CCC3c4ccccc4-c4cncn43)CC2)CC1 (single isomer, unassigned) [Compound 60d, 1-[4-fluoro-4-[2-[5H-imidazo[4,3-a]isoindol-5-yl]ethyl]cyclohexyl]cyclopropan-1-ol] | > 7.00
CC(C)(O)C1CCC(F)(CCC2c3ccccc3-c3cncn32)CC1 (single isomer, unassigned) [Compound 61a, 2-[4-fluoro-4-[2-[5H-imidazo[4,3-a]isoindol-5-yl]ethyl]cyclohexyl]propan-2-ol] | < 6.00
CC(C)(O)C1CCC(F)(CCC2c3ccccc3-c3cncn32)CC1 (single isomer, unassigned) [Compound 61b, 2-[4-fluoro-4-[2-[5H-imidazo[4,3-a]isoindol-5-yl]ethyl]cyclohexyl]propan-2-ol] | < 6.00
CC(C)(O)C1CCC(F)(CCC2c3ccccc3-c3cncn32)CC1 (single isomer, unassigned) [Compound 61c, 2-[4-fluoro-4-[2-[5H-imidazo[4,3-a]isoindol-5-yl]ethyl]cyclohexyl]propan-2-ol] | > 7.00
CC(C)(O)C1CCC(F)(CCC2c3ccccc3-c3cncn32)CC1 (single isomer, unassigned) [Compound 61d, 2-[4-fluoro-4-[2-[5H-imidazo[4,3-a]isoindol-5-yl]ethyl]cyclohexyl]propan-2-ol] | > 7.00
OC(CC1CCCCC1)CC1c2ncccc2-c2cncn21 (single isomer, unassigned) [Compound 62a, 1-cyclohexyl-3-[4,6,9-triazatricyclo[6.4.0.0^[2,6]]dodeca-1(8),2,4,9,11-pentaen-7-yl]propan-2-ol] | 6.00 to 7.00
OC(CC1CCCCC1)CC1c2ncccc2-c2cncn21 (single isomer, unassigned) [Compound 62c, 1-cyclohexyl-3-[4,6,9-triazatricyclo[6.4.0.0^[2,6]]dodeca-1(8),2,4,9,11-pentaen-7-yl]propan-2-ol] | < 6.00
OC(CC1CCCCC1)CC1c2ncccc2-c2cncn21 (single isomer, unassigned) [Compound 62d, 1-cyclohexyl-3-[4,6,9-triazatricyclo[6.4.0.0^[2,6]]dodeca-1(8),2,4,9,11-pentaen-7-yl]propan-2-ol] | < 6.00
NC(=O)C1CCC(C(O)CC2c3ncccc3-c3cncn32)CC1 (single isomer, unassigned) [Compound 63b, 4-[1-hydroxy-2-[4,6,9-triazatricyclo[6.4.0.0^[2,6]]dodeca-1(8),2,4,9,11-pentaen-7-yl]ethyl]cyclohexane-1-carboxamide] | < 6.00
NC(=O)C1CCC(C(O)CC2c3ncccc3-c3cncn32)CC1 (single isomer, unassigned) [Compound 63c, 4-[1-hydroxy-2-[4,6,9-triazatricyclo[6.4.0.0^[2,6]]dodeca-1(8),2,4,9,11-pentaen-7-yl]ethyl]cyclohexane-1-carboxamide] | < 6.00
NC(=O)C1CCC(C(O)CC2c3ncccc3-c3cncn32)CC1 (single isomer, unassigned) [Compound 63d, 4-[1-hydroxy-2-[4,6,9-triazatricyclo[6.4.0.0^[2,6]]dodeca-1(8),2,4,9,11-pentaen-7-yl]ethyl]cyclohexane-1-carboxamide] | < 6.00
CC1(C)CCC(F)(CCC2c3ncncc3-c3cncn32)CC1 (single isomer, unassigned) [Compound 66a, 7-[2-(1-fluoro-4,4-dimethylcyclohexyl)ethyl]-4,6,9,11-tetraazatricyclo[6.4.0.0^[2,6]]dodeca-1(8),2,4,9,11-pentaene] | < 6.00
CC1(C)CCC(F)(CCC2c3ncncc3-c3cncn32)CC1 (single isomer, unassigned) [Compound 66b, 7-[2-(1-fluoro-4,4-dimethylcyclohexyl)ethyl]-4,6,9,11-tetraazatricyclo[6.4.0.0^[2,6]]dodeca-1(8),2,4,9,11-pentaene] | < 6.00
